#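 Test compounds were applied to cells in 96-well plates for 48 hours at 5 doses. Abbreviation: GI50, concentration required for 50% inhibition of growth. TGI is the concentration that stops growth completely.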
# How the values were obtained:
# Assay in all cases: growth of human tumour cells (NCI), 48 h
# HOP-62 NSCLC = tested on: HOP-62 NSCLC
# K-562 leukemia = tested on: K-562 leukemia
# M14 melanoma = tested on: M14 melanoma
# MDA-MB-435 = tested on: MDA-MB-435
# NCI-H522 lung = tested on: NCI-H522 lung
# NCI/ADR-RES ovarian = tested on: NCI/ADR-RES ovarian
# OVCAR-3 ovarian = tested on: OVCAR-3 ovarian
# SF-268 CNS = tested on: SF-268 CNS
# SK-MEL-5 melanoma = tested on: SK-MEL-5 melanoma
# SR leukemia = tested on: SR leukemia
SMILES,GI50 (HOP-62 NSCLC) [µM],TGI (HOP-62 NSCLC) [µM],GI50 (K-562 leukemia) [µM],TGI (K-562 leukemia) [µM],GI50 (M14 melanoma) [µM],TGI (M14 melanoma) [µM],GI50 (MDA-MB-435) [µM],TGI (MDA-MB-435) [µM],GI50 (NCI-H522 lung) [µM],TGI (NCI-H522 lung) [µM],GI50 (NCI/ADR-RES ovarian) [µM],TGI (NCI/ADR-RES ovarian) [µM],GI50 (OVCAR-3 ovarian) [µM],TGI (OVCAR-3 ovarian) [µM],GI50 (SF-268 CNS) [µM],TGI (SF-268 CNS) [µM],GI50 (SK-MEL-5 melanoma) [µM],TGI (SK-MEL-5 melanoma) [µM],GI50 (SR leukemia) [µM],TGI (SR leukemia) [µM]
O=C(Oc1cccnc1)c1ccsc1Nc1ccnc(C(F)(F)F)c1,25,> 100,3.74,> 100,9.39,> 100,2.88,11.8,2.36,8.36,4.62,> 100,8.76,> 100,4.54,> 100,5.26,30.1,3.74,47.1
Nc1ccccc1SCc1csc(-c2ccc(Cl)cc2)n1,,> 90.6,,63.9,,41.7,,37.8,,31.1,,66.4,,> 67.6,,> 100,,28.7,,29.9
O=C1NC(=O)C(c2cccc(Cl)c2)=C1Nc1ccc(O)c(Cl)c1,9.57,24.3,11.7,> 25,12.1,> 25,3.28,> 25,6.98,> 21,10.4,> 25,7.86,> 21.9,11.2,> 25,5.46,18.6,11.3,> 25
O=C(Nc1cccc(Nc2ncc(Br)c(NCCc3cnc[nH]3)n2)c1)N1CCCC1,2.35,14.7,2.84,> 64.9,6.23,21.8,2.62,18.5,11.5,27.6,> 66.7,> 100,4.62,24.3,1.41,13.9,,22.1,0.527,28
CSC(=S)N/N=C(\C)c1cccc(C)n1,,6.98,,> 7.8,,1.6,,> 35.7,,3.01,,> 36.3,,1.99,,46.7,,8.56,,> 65.6
